From patent US20130172407A1, “Inhibition of Cancer Cell Proliferation Using Oleoylethanolamide” (China Medical University, priority 2011, published 2013)

Tests used:
Format in all cases: cell-based, Human
[1] = test system: HT-29 cells; assay: MTT cell viability analysis, HT-29 cells; details: 24 hours, OEA 50, 100, 200 μM and lycopene 2, 5 μM compared to control group, synergy groups (200 μM OEA + 2 or 5 μM lycopene) compared to OEA group 3 and lycopene groups 1 and 2, FIG. 1
Procedure: (§1) HT-29 cells were cultured in a 75-cm^2 flask containing McCoy's medium (Invitrogen Inc., Carlsbad, Calif., USA) supplemented with 10% Fetal Bovine Serum (FBS), 2 mM glutamine and 1.5 g/L sodium bicarbonate. The remaining cells were cultured in a 75-cm^2 flask containing RPMI 1640 medium (Hyclone, Grand Island, N.Y., USA) supplemented with 10% Fetal Bovine Serum (FBS), 2 mM glutamine and 1.5 g/L sodium bicarbonate. These cells were cultured in an incubator with culture conditions set at 37° C. and 5% CO2. […]
(§2) • {3-[4,5-Dimethylthiazol-2-yl]-2,5-diphenyltetrazolium bromide} (MTT, 0.5 mg/mL, 200 μL) was added to the cell culture of each group, followed by incubation in an incubator (37° C., 5% CO2) for 2 hours. […] The absorbance at 570 nm (OD570) for each well was detected using a microplate reader (Tecan Inc., Mannedorf, Switzerland).
(§3) Cell viability percentage (%) was calculated by substituting the detected absorbance (OD570) to the following formula (1):
(§4) A=(B/C)×100 Formula (1): • wherein: • A=cell viability percentage (%) • B=the detected OD570 absorbance of each group • C=the detected OD570 absorbance of control group

[2] = test system: HCT 116 cells; assay: MTT cell viability analysis, HCT 116 cells; details: 24 hours, OEA 50, 100, 200 μM and lycopene 2, 5 μM compared to control group, synergy groups (200 μM OEA + 2 or 5 μM lycopene) compared to OEA group 3 and lycopene groups 1 and 2, FIG. 2
Procedure: as §1, §2, §3, §4

[3] = test system: SW-480 cells; assay: MTT cell viability analysis, SW-480 cells; details: 24 hours, OEA 50, 100, 200 μM and lycopene 2, 5 μM compared to control group, synergy groups (200 μM OEA + 2 or 5 μM lycopene) compared to OEA group 3 and lycopene groups 1 and 2, FIG. 3
Procedure: as §1, §2, §3, §4

[4] = test system: A549 cells; assay: MTT cell viability analysis, A549 cells; details: 24 hours, OEA 50, 100, 200 μM and lycopene 2, 5 μM compared to control group, synergy groups (200 μM OEA + 2 or 5 μM lycopene) compared to OEA group 3 and lycopene groups 1 and 2, FIG. 4
Procedure: as §1, §2, §3, §4

[5] = test system: MDA-MB-231 cells; assay: MTT cell viability analysis, MDA-MB-231 cells; details: 24 hours, OEA 50, 100, 200 μM and lycopene 2, 5 μM compared to control group, synergy groups (200 μM OEA + 2 or 5 μM lycopene) compared to OEA group 3 and lycopene groups 1 and 2, FIG. 5
Procedure: as §1, §2, §3, §4

[6] = test system: Huh-7 cells; assay: MTT cell viability analysis, Huh-7 cells; details: 24 hours, OEA 50, 100, 200 μM and lycopene 2, 5 μM compared to control group, synergy groups (200 μM OEA + 2 or 5 μM lycopene) compared to OEA group 3 and lycopene groups 1 and 2, FIG. 6
Procedure: as §1, §2, §3, §4

[7] = test system: CAL 27 cells; assay: MTT cell viability analysis, CAL 27 cells; details: 24 hours, OEA 50, 100, 200 μM and lycopene 2, 5 μM compared to control group, synergy groups (200 μM OEA + 2 or 5 μM lycopene) compared to OEA group 3 and lycopene groups 1 and 2, FIG. 7
Procedure: as §1, §2, §3, §4

[8] = test system: AGS cells; assay: MTT cell viability analysis, AGS cells; details: 24 hours, OEA 50, 100, 200 μM and lycopene 2, 5 μM compared to control group, synergy groups (200 μM OEA + 2 or 5 μM lycopene) compared to OEA group 3 and lycopene groups 1 and 2, FIG. 8
Procedure: as §1, §2, §3, §4

[9] = test system: HT-29 cells; assay: Flow cytometry cell cycle analysis (PI staining, Sub-G1 phase); details: 24 hours, OEA 50, 100, 200 μM, lycopene 2, 5 μM, synergy groups (200 μM OEA + 2 or 5 μM lycopene) compared to OEA groups 1-3 and lycopene groups 1 and 2, FIG. 9
Procedure: In order to understand the effect of OEA and its combination with lycopene on the cell cycle and proliferation of human colorectal cancer cell line HT-29, HT-29 cell culture treated with different solutions obtained from Item B of Example 2 was used for the following experiments.
Each group of the HT-29 cell culture obtained from Item B of Example 2 was washed with PBS twice followed by fixing the cells with 70% (w/v) cold ethanol for 1 hour. Then, the obtained fixed cells were washed with cold PBS followed by centrifugation at 300 g for 5 minutes. […]
Subsequently, the obtained dyed cells were subjected to cell cycle analysis using BD FACSCanto™ flow cytometer (BD Biosciences, Cat. No. 338960), and the DNA content of 1×10^4 cells was analyzed in each analysis. The cells would emit fluorescence when excited by laser beam of argon ion at 488 nm. Cell cycle profile was analyzed from DNA content histograms using BD FACSDiVa™ software (Becton Dickinson, Cat. No. 643629). […] The percentage of the cells in Sub-G1 phase was analyzed using ModFit LT software.
The obtained experimental data was analyzed according to the method described in “Statistical Analysis” in the section of “General experimental procedure”.

[10] = test system: cyclin D1; assay: Western Blotting analysis of nuclear protein, cyclin D1 expression in HT-29 cells; details: HT-29 nuclear protein; OEA 200 μM, lycopene 2 and 5 μM compared to control group; synergy groups compared to OEA group 3 and lycopene groups 1 and 2; FIG. 10
Procedure: (§5) In order to detect the protein expression of HT-29 cells, the HT-29 cell culture treated with different solutions for use in the instant experiment was obtained substantially according to “B. Treatment of various cancer cell lines with OEA solutions, lycopene solutions and combined solutions” in the above Example 2. The difference was that the cells of each group were cultured in a culture dish having a diameter of 10 cm. Experimental groups were added with different solutions according to those shown in Table 3 and the amount added was 10 mL.
(§6) Then, the HT-29 cell cultures of the control group, OEA group 3, lycopene groups 1 and 2 and synergy groups 1 and 2 were washed with PBS twice followed by adding 75 μL lysis buffer (containing PBS, 1% Ipegal CA-630 (Sigma, St. Louis, Mo.), 0.5% sodium deoxycholate, 0.1% SDS, 100 μM phenylmethylsulfonyl fluoride, 20 μg/mL aprotinin, 1 mM PMSF and 3 μM sodium orthovanadate) and uniformly mixing. The resultant cell mixtures were subjected to nuclear protein extraction using NE-PER® Nuclear and Cytoplasmic Extraction Reagents (Thermo Scientific, Cat. No. 78833) according to the manufacturer's operation guide, thereby obtaining nuclear protein samples. […]

[11] = test system: p-NF-κB p65; assay: Western Blotting analysis of nuclear protein, p-NF-κB p65 expression in HT-29 cells; details: HT-29 nuclear protein; OEA 200 μM, lycopene 2 and 5 μM compared to control group; synergy groups compared to OEA group 3 and lycopene groups 1 and 2; FIG. 10
Procedure: as §5, §6

[12] = test system: HT-29 cells; assay: FITC Annexin V / PI flow cytometry, cell death (apoptosis); details: FITC Annexin V and PI positive, OEA 200 μM and lycopene 5 μM compared to control group, synergy groups compared to OEA group 3 and lycopene group 2, FIG. 11
Procedure: In order to further investigate the usefulness of OEA and its combination with lycopene in inducing cell apoptosis of human colorectal cancer cell line HT-29, HT-29 cell cultures of control group, OEA group 3, lycopene groups 1 and 2 and synergy groups 1 and 2 obtained according to the above Item B in Example 2 were used for subsequent experiments.
First, the cell culture of each group was collected and washed with cold PBS twice followed by centrifugation at 300 g for 5 minutes. The supernatant was removed and 1× Annexin V Binding Buffer (BD Pharmingen™) was added to sufficiently re-suspend the cell pellet thereby obtaining a cell suspension having a cell concentration of 1×10^5 cells/mL. […]
Then, the stained cells were analyzed using BD FACSAria™ flow cytometry, wherein cells stained with FITC Annexin V and PI, i.e., FITC Annexin V positive and PI positive, represent cells that were induced with apoptosis and died, while cells that could not be stained with FITC Annexin V and PI, i.e., FITC Annexin V negative and PI negative, represent viable cells. The number of cells stained with FITC Annexin V and PI was calculated using BD FACSDiVa™ software.
The cell death percentage (%) of each group was calculated by substituting the detected cell number to the following formula (2): […]

| Structure (SMILES) | cell viability percentage [1] | cell viability percentage [2] | cell viability percentage [3] | cell viability percentage [4] | cell viability percentage [5] | cell viability percentage [6] | cell viability percentage [7] | cell viability percentage [8] | percentage of HT-29 cells in Sub-G1 phase [9] | amount of cyclin D1 expression [10] | amount of p-NF-κB p65 expression [11] | cell death percentage [12] |
| --- | --- | --- | --- | --- | --- | --- | --- | --- | --- | --- | --- | --- |
| CCCCCCCC/C=C\CCCCCCCC(=O)NCCO [OEA, oleoylethanolamide] | reduced | reduced | reduced | reduced | reduced | reduced | reduced | reduced | promote HT-29 cells to be in Sub-G1 phase | reduced | reduced | elevated |
| CC(C)=CCC/C(C)=C/C=C/C(C)=C/C=C/C(C)=C/C=C/C=C(C)/C=C/C=C(C)/C=C/C=C(\C)CCC=C(C)C [lycopene] | reduced | reduced | reduced | reduced | reduced | reduced | reduced | reduced | promote HT-29 cells to be in Sub-G1 phase | reduced | reduced | elevated |
